Laboratory results taken from ChEMBL document CHEMBL1136190, “Synthesis and evaluation of methyl ether derivatives of the vancomycin, teicoplanin, and ristocetin aglycon methyl esters” (2003).
Values after ≈ are worked out from the molar mass of the structure shown.

Legend:
Format in all cases: functional
[1] = tested on: Enterococcus faecalis; experiment: Minimum inhibitory concentration against Enterococcus faecalis (VanA, BM4166)
[2] = tested on: Enterococcus faecalis; experiment: Minimum inhibitory concentration against Enterococcus faecalis (VanB, ATCC 51299)
[3] = tested on: Staphylococcus aureus; experiment: Minimum inhibitory concentration against Staphylococcus aureus (ATCC 25923)

SMILES	MIC [1] [µg/mL]	MIC [2] [µg/mL]	MIC [3] [µg/mL]
CN[C@H](CC(C)C)C(=O)N[C@H]1C(=O)N[C@@H](CC(N)=O)C(=O)N[C@H]2C(=O)N[C@H]3C(=O)N[C@H](C(=O)N[C@H](C(=O)O)c4cc(O)cc(O)c4-c4cc3ccc4O)[C@H](O)c3ccc(c(Cl)c3)Oc3cc2cc(c3O)Oc2ccc(cc2Cl)[C@H]1O [VANCOMYCIN AGLYCON]	> 100	25 (≈ 21.9 µM)	0.8 (≈ 0.699 µM)
CN[C@H](CC(C)C)C(=O)NC1C(=O)NC(CC#N)C(=O)NC2C(=O)NC3C(=O)NC(C(=O)NC(C(=O)OC)c4cc(OC)cc(OC)c4-c4cc3ccc4OC)C(O)c3ccc(c(Cl)c3)Oc3cc2cc(c3OC)Oc2ccc(cc2Cl)[C@H]1O (stereo partly specified)	50 (≈ 41.8 µM)	1.6 (≈ 1.34 µM)	1.6 (≈ 1.34 µM)
COC(=O)C1NC(=O)C2NC(=O)C(NC(=O)C3NC(=O)C4NC(=O)[C@H](NC(=O)[C@H](N)c5ccc(O)c(c5)Oc5cc4cc(O)c5C)[C@H](O)c4ccc(cc4)Oc4cc3cc(c4OC)Oc3ccc(cc3)C2O)c2ccc(O)c(c2)-c2c(OC)cc(O)cc21 (stereo partly specified)	> 100	3.2 (≈ 2.66 µM)	3.2 (≈ 2.66 µM)
COC(=O)[C@H]1NC(=O)[C@H]2NC(=O)[C@H](NC(=O)[C@@H]3NC(=O)[C@H]4NC(=O)[C@H](NC(=O)[C@H](N)c5ccc(O)c(c5)Oc5cc4cc(O)c5C)[C@H](O)c4ccc(cc4)Oc4cc3cc(c4O)Oc3ccc(cc3)[C@H]2O)c2ccc(O)c(c2)-c2c(O)cc(O)cc21	> 100	25 (≈ 21.3 µM)	0.8 (≈ 0.681 µM)
CN[C@H](CC(C)C)C(=O)N[C@H]1C(=O)N[C@@H](CC(N)=O)C(=O)N[C@H]2C(=O)N[C@H]3C(=O)N[C@H](C(=O)N[C@H](C(=O)O)c4cc(O)cc(O)c4-c4cc3ccc4O)[C@H](O)c3ccc(c(Cl)c3)Oc3cc2cc(c3O[C@@H]2O[C@H](CO)[C@@H](O)[C@H](O)[C@H]2O[C@H]2C[C@](C)(N)[C@H](O)[C@H](C)O2)Oc2ccc(cc2Cl)[C@H]1O [VANCOMYCIN]	> 100	25 (≈ 17.3 µM)	0.8 (≈ 0.552 µM)
Cc1c(O)cc2cc1Oc1cc(ccc1O)[C@@H](N)C(=O)N[C@H]1C(=O)N[C@@H]2C(=O)N[C@H]2C(=O)N[C@H]3C(=O)N[C@H](C(=O)N[C@@H](C(=O)O)c4cc(O)cc(O[C@H]5O[C@H](CO)[C@@H](O)[C@H](O)[C@@H]5O)c4-c4cc3ccc4O)[C@H](O[C@H]3C[C@@H](N)[C@@H](O)[C@H](C)O3)c3ccc(cc3)Oc3cc2cc(c3O[C@H]2O[C@@H](CO[C@H]3O[C@H](C)[C@@H](O)[C@H](O)[C@@H]3O)[C@H](O)[C@@H](O)[C@@H]2O[C@H]2O[C@H](CO)[C@@H](O)[C@H](O)[C@@H]2O[C@H]2O[C@H](CO)[C@@H](O)[C@@H]2O)Oc2ccc(cc2)[C@H]1O [RISTOCETIN]	> 100	12.5 (≈ 6.09 µM)	1.6 (≈ 0.779 µM)
CN[C@H](CC(C)C)C(=O)NC1C(=O)NC(CC(N)=O)C(=O)NC2C(=O)NC3C(=O)NC(C(=O)NC(C(=O)OC)c4cc(OC)cc(OC)c4-c4cc3ccc4OC)C(O)c3ccc(c(Cl)c3)Oc3cc2cc(c3OC)Oc2ccc(cc2Cl)[C@H]1O (stereo partly specified)	50 (≈ 41.2 µM)	1.6 (≈ 1.32 µM)	1.6 (≈ 1.32 µM)
